Laboratory results reported in patent publication US10420755B2, “Use of ciclopirox for the treatment of congenital erythropoietic porphyria” (ASOCIACIÓN CENTRO DE INVESTIGACIÓN COOPERATIVA EN …, priority 2016, dated 2019).
Residue numbers refer to the chain shown, from its start. Where a SMILES comes first, the peptide text is derived from it. The star is where a group is joined. Cbz = O=C(OCc1ccccc1)*

Legend:
[1] = system: HEK 562 cells; test: HPLC quantification of UROI in cellular model of CEP; assay type: cell-based, human; conditions: equimolar quantities of MG and ciclopirox
Experimental: Inset: variation of the concentration of UROI as a function of the CP concentration, in comparison to MG and the absence of any chemical. CP=ciclopirox, MG=proteasomal inhibitor MG132, UROI=uroporphyrinogen I.
Moreover, the reduction in the fluorescence corresponds to a decrease in the intracellular concentration of UROI (see FIG. 4).
HPLC was used to separate and quantify UROI and UROIII products from PBGD and UROIIIS-C73N enzymatic assays and from cellular extracts. HPLC was carried out on a ODS Hypersil C18 column (5 um, 3×200 mm; Thermo Scientific, MA, USA). Porphyrins were separated with a 15 min isocratic elution in a mobile phase of 89% 1M ammonium acetate buffer pH 5.16 and 11% Acetonitrile, at a flow rate of 0.5 mL/min, and were detected by fluorescence with an excitation wavelength 405 nm and emission wavelength 610 nm, which is characteristic of porphyrins. The sample injection volume was […].

[2] = system: mouse in vivo model of CEP; conditions: associated with elevation of cellular UROIIIS levels; cited from earlier work
[3] = system: HEK 562; test: Porphyrin accumulation (fluorocytes) by FACS in cellular model of CEP; assay type: cell-based, human; conditions: HEK 562 CEP model
Experimental: FIG. 3: Evaluation of UROI levels in a normal HEK cellular phenotype [Up-left graph], in a human in vitro cellular model of CEP (HEK 562) [Up-right graph], in HEK 562 with a tool compound (a proteasome inhibitor termed in the data MG) [Down-left graph], and in HEK 562 with ciclopirox [Down-right graph]. The accumulation of porphyrins is measured by fluorescence spectroscopy (fluorocytes) and is depicted in as the right-shift of the population as compared to normal cells (that are concentrated on the left due to the absence of intrinsic fluorescence). The numbers in bold indicate the percentage of cells in each of the specific populations. CP=ciclopirox, MG=proteasomal inhibitor MG132.
The current supporting data disclosed is in relation to a human in vitro cellular model of CEP (HEK 562) in which there is a stable genomic defect introduced into the uroporphyrinogen III synthase enzyme which drives the accumulation of toxic porphyrins and ultimately the pathology of CEP (including the characteristic disabling and disfiguring skin lesions in CEP patients). […] The accumulation of porphyrins is measured by fluorescence spectroscopy (fluorocytes) and appear shifted to the right as compared to normal cells (which are concentrated in the left area). The numbers in bold indicate the percentage of cells in each of the specific populations. […]

[4] = target: T1, C73R- and P248Q-UROIIIS (Homo sapiens, UniProt P10746, C73R); test: UROIIIS-GFP protein levels (GFP fluorescence) in HEK cells stably expressing mutants; assay type: cell-based; conditions: HEK cells expressing C73R or P248Q mutants, compared with WT-UROIIIS
T1 construct: expressed in transfected cells
T1 sequence (P10746 1-265 C73R): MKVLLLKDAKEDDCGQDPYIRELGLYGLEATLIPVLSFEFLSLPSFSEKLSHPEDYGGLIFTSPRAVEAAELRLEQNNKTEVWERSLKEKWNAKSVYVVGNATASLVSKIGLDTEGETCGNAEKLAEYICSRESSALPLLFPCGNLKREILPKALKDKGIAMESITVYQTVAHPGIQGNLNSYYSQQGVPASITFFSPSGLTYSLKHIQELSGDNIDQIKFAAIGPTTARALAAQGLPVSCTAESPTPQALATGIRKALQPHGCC
From the text: FIG. 2: A fusion construct with GFP (C73R-UROIIIS-GFP) has been stably expressed in HEK cells to measure the increase in the protein levels, by monitoring the intrinsic GFP fluorescence. […] Introduction of the pathogenic mutations (i. e. C73R or P248Q) reduces the intrinsic fluorescence due to a decrease in the intracellular UROIIIS concentration. […] For comparison, data obtained with a powerful proteasome inhibitor (MG) is also included. Dashed lines correspond to error bars. CP=ciclopirox, MG=proteasomal inhibitor MG132.
Specifically, we have tested the protein expression for the two most aggressive mutations: C73R- and P248Q-UROIIIS (FIG. 2), utilising human embryonic kidney cells (HEK) stably expressing these mutations.

[5] = target: T2, UROIIIS (Homo sapiens, UniProt P10746); test: Direct binding by NMR spectroscopy
T2 construct: made in house
T2 sequence (P10746 1-265): T1 sequence (P10746 1-265 C73R) with R73C

[6] = target: T3, C73N-UROIIIS (Homo sapiens, UniProt P10746, C73N); test: In vitro enzymatic assay of UROIIIS (PBGD-coupled, as a function of PBG concentration); assay type: biochemical; conditions: ratio UROIIIS:ciclopirox 1:5
T3 construct: made in house
T3 sequence (P10746 1-265 C73N): T1 sequence (P10746 1-265 C73R) with R73N
Experimental: FIG. 1: evaluation of the C73N-UROIIIS catalytic activity as a function of the PBG concentration. Porphobilinogen deaminase (PBGD) converts porphobilinogen (PBG) into preuroporphirinogen, the substrate for UROIIIS. PBGD is added in excess, acting as a reagent and the experiment reports only on the catalytic activity of the uroporphyrinogen III synthase. The solid/dashed lines correspond to the experimental points in the absence/presence of ciclopirox at a ratio UROIIIS:ciclopyrox 1:5.
The in vitro activity of a deleterious variant of the UROIIIS is measured as a function of the PBG concentration. […] C73N-UROIIIS produces reduced catalytic activity of the enzyme (FIG. 1, solid line).
The assay is based on the method described by Jordan (Shoolingin-Jordan P M et al. (1997). Methods in enzymology 281: 327-336) with some modifications. […] of porphobilinogen deaminase (PBGD) at a concentration of […] in […] of buffer (20 mM Tris-HCl pH 8.0, NaCl 150 mM, pH 8.0) is add in a 96 weels plate. […] of the porphobilinogen (PBG) substrate are then added, diluted to different concentrations (0.1, 0.4, 0.8, 1.5, 2, 3, 4 mM) in the aforementioned buffer and are incubated at 37° C. for one minute. […] Finally, we measure the change of absorbance at 405 nm with respect to the control sample in a plate ABS reader.

[7] = system: murine model of CEP (P248Q+/+); test: Murine model of CEP treated with ciclopirox in food; assay type: in vivo, mouse
From the text: FIG. 5: Change in porphyrin levels and consequent effect on splenomegaly in mice treated with ciclopirox (CPX). A) Left: URO I or B) COPRO I porphyrin concentration in red blood cells (RBC) as determined by HPLC analysis for the mouse group treated with CPX (n=7, solid line) and the control group (n=9, dashed line). Right: representation of the same porphyrin levels but compared to their respective values at day 0 for the mice treated with CPX (solid line) and the untreated mice (dashed line). The reduction of porphyrins between the two groups is shown in grey dashed line (in percentage). C) Variation in the protoporphyrin IX (PROTO IX) concentration over time in the mouse group treated with CPX (solid line) and the control group (dashed line). D) Concentration of porphyrins in urine at day 45 of treatment (normalized versus creatinine concentration). E) Change in UROI levels in the liver at day 45 of treatment (weight normalized) F) CPX reduces splenomegaly after 45 days of treatment since the spleen volume of the untreated mice (top row) is higher than the CPX treated group (bottom row) Splenomegaly is directly associated with haemolytic anaemia.
Upon treatment disruption, the porphyrin levels are restored, but slowly.
Additionally, after 45 days of treatment, ciclopirox reduced in 40% the porphyrin levels in liver tissue (shown in FIG. 5-E for UROI) and the splenomegaly (FIG. 5-F)—evidence of reduced haemolysis. Moreover, there was a significant weight reduction of the spleen when comparing the ciclopirox group (mean 410±86 mg, FIG. 5-F bottom row) and the untreated group (mean 985±204 mg, FIG. 5-F top row).
A total of 16 animals (murine model of CEP) were used in the experiment and ciclopirox was mixed with the food pellets; 7 animals had food with ciclopirox (plasma levels achieved between 15 and 20 μM) and 9 animals were not given treatment. The isomer I porphyrin levels were monitored in the blood weekly. After a basal (pre-treatment) sample (day 0), treatment was started on day 2 and the first post-treatment sample was obtained on day 3, followed by weekly monitoring.

[8] = treated vs control group, up to day 45

| Structure (SMILES) | UROI level by HPLC [1] | Skin lesions [2] | Porphyrin accumulation / cellular phenotype (fluorocytes) [3] | Intracellular UROIIIS-GFP fluorescence levels [4] | Direct binding to the enzyme [5] | C73N-UROIIIS catalytic (enzymatic) activity [6] | Reduction of porphyrin levels in liver tissue (UROI) ([7]; after 45 days of treatment) [%] | Splenomegaly ([7]; after 45 days of treatment) | Spleen weight (mean) ([7]; after 45 days of treatment, untreated group 985±204 mg) [mg] | Isomer I porphyrins in urine ([7]; day 45, normalized versus creatinine) | Protoporphyrin IX (PROTO IX) concentration ([7]; over time, treated vs control) | COPRO I porphyrin in blood (RBC) [7, 8] | URO I porphyrin in blood (RBC) [7, 8] |
| --- | --- | --- | --- | --- | --- | --- | --- | --- | --- | --- | --- | --- | --- |
| CC(C)C[C@@H](C=O)NC(=O)[C@H](CC(C)C)NC(=O)[C@H](CC(C)C)NC(=O)OCc1ccccc1 [MG] (Cbz-Leu-Leu-Leu-aldehyde) | reduction of UROI | decreased skin lesions | reduces toxic porphyrin levels |  |  |  |  |  |  |  |  |  |  |
| Cc1cc(C2CCCCC2)n(O)c(=O)c1 [ciclopirox, 6-cyclohexyl-1-hydroxy-4-methyl-2(1H)-pyridone] | reduction of UROI |  | largely restore the normal HEK cellular phenotype | largely restitutes the fluorescence levels observed with WT-UROIIIS | Direct binding has also been demonstrated | recovers the enzymatic activity | 40 | reduced | 410 ± 86 | significantly reduced | increase the concentration | significantly reduced | significantly reduced |
